Assay results: PubChem BioAssay (NCI)
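Cultured in 96-well plates, cells were exposed to test compound for 48 hours across five concentrations. At the GI50, growth is halved. TGI: concentration producing complete growth inhibition.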

Tests used:
Experiment in all cases: growth of human tumour cells (NCI), 48 h
[1] = tested on: NCI-H23 lung
[2] = tested on: NCI-H460 lung
[3] = tested on: NCI-H522 lung
[4] = tested on: NCI/ADR-RES ovarian
[5] = tested on: OVCAR-3 ovarian
[6] = tested on: OVCAR-4 ovarian
[7] = tested on: OVCAR-5 ovarian
[8] = tested on: OVCAR-8 ovarian
[9] = tested on: PC-3 prostate
[10] = tested on: RPMI-8226 leukemia
[11] = tested on: RXF 393 renal
[12] = tested on: SF-268 CNS
[13] = tested on: SF-539 CNS
[14] = tested on: SK-MEL-2 melanoma
[15] = tested on: SK-MEL-28 melanoma
[16] = tested on: SK-MEL-5 melanoma
[17] = tested on: SK-OV-3 ovarian
[18] = tested on: SN12C renal
[19] = tested on: SNB-19 CNS
[20] = tested on: SNB-75 CNS
[21] = tested on: SW-620 colon
[22] = tested on: T-47D breast
[23] = tested on: TK-10 renal
[24] = tested on: U251 CNS
[25] = tested on: UACC-257 melanoma
[26] = tested on: UACC-62 melanoma
[27] = tested on: UO-31 renal

## Nc1ccc(-c2ccc(-c3nc4ccccc4[nH]3)cc2)cc1
[1]
  GI50: 10.6 µM
  TGI: > 90.6 µM
[2]
  GI50: 0.196 µM
  TGI: > 65.1 µM
[3]
  GI50: 1.1 µM
  TGI: > 53.9 µM
[4]
  GI50: 21.3 µM
  TGI: > 76.3 µM
[5]
  GI50: 1.2 µM
  TGI: 40.1 µM
[6]
  GI50: 21.1 µM
  TGI: 79.9 µM
[7]
  GI50: > 75.9 µM
  TGI: > 100 µM
[8]
  GI50: 14.1 µM
  TGI: 97.5 µM
[9]
  GI50: 14.1 µM
  TGI: 56.8 µM
[10]
  GI50: 3.34 µM
  TGI: 39.9 µM
[11]
  GI50: 23.5 µM
  TGI: 82.9 µM
[12]
  GI50: 2.76 µM
  TGI: > 100 µM
[13]
  GI50: 0.208 µM
[14]
  GI50: 1.88 µM
  TGI: > 100 µM
[15]
  GI50: 2.08 µM
  TGI: > 100 µM
[16]
  GI50: 14.9 µM
  TGI: > 100 µM
[17]
  GI50: 46 µM
  TGI: > 100 µM
[18]
  GI50: 19.6 µM
  TGI: > 100 µM
[19]
  GI50: 18.4 µM
  TGI: > 100 µM
[20]
  GI50: 27.8 µM
  TGI: 69.4 µM
[21]
  GI50: < 0.0506 µM
  TGI: > 100 µM
[22]
  GI50: 3.89 µM
  TGI: > 100 µM
[23]
  TGI: > 100 µM
[24]
  GI50: 11.4 µM
  TGI: 44.5 µM
[25]
  GI50: 1.11 µM
  TGI: > 100 µM
[26]
  GI50: 0.61 µM
  TGI: 3.61 µM
[27]
  GI50: 10.5 µM
  TGI: > 100 µM
